A value given as a limit tells only on which side of the number the result lay.

These results are taken from patent US20230234943A1, “TREX1 INHIBITORS AND USES THEREOF” (Tempest Therapeutics, Inc., priority 2020, published 2023).

In this experiment the target is T1, Human TREX1 enzyme (amino acids 1-242) (Homo sapiens, UniProt Q9NSU2).
T1 construct: Human TREX1 enzyme (amino acids 1-242)
T1 sequence (Q9NSU2 1-242): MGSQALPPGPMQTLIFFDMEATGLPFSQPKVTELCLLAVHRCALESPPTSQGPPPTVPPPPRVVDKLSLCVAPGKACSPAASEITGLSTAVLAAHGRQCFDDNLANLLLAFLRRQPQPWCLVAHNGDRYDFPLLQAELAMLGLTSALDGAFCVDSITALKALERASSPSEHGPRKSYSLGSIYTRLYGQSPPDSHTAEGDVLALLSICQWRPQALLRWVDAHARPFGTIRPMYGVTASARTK
Nature of the experiment: Human TREX1 enzymatic assay with dsDNA native oligonucleotide (Picogreen fluorescence). In kind it is biochemical. To be noted: 2 mM dithiothreitol in assay buffer; 50 nM dsDNA oligonucleotide; 30 min preincubation at 25° C.; read-out: TREX1/Human + DTT IC50 AVG. On the procedure: Example A. Human TREX1 Enzymatic Assay with dsDNA Native Oligonucleotide
Human TREX1 enzyme (amino acids 1-242) was diluted in assay buffer (20 mM Tris pH 7.7, 5 mM MgCl2, 0.01% human serum albumin, 0.01% Brij™-35, 2 mM dithiothreitol) to a final concentration of 0.8 nM to 0.16 nM and added to a 96-well low-binding polypropylene plate. Test compounds were diluted in DMSO to 50× concentration (final DMSO concentration in reaction mixture of 2%) and added to the wells with a concentration ranging from 300 μM to 13 nM or 30 μM to 1.5 nM. The reaction mixtures were incubated for 30 minutes at 25° C. and a solution of annealed dsDNA oligonucleotide (5′-[…]-3′ and Comp: 5′-[…]-3′) was added to a final concentration of 50 nM. The reaction mixtures were incubated at 25° C. for 5-15 minutes and subsequently quenched by transferring part of the assay reaction to a solution of 100 mM ethylenediaminetetraacetic acid and 1:100 Picogreen™ (final concentration of […]) in a black plate with an opaque bottom. The fluorescence ([…]) was measured using a Molecular Devices SpectraMax plate reader. Wells containing oligonucleotide but no TREX1 enzyme were used as negative controls. Wells containing oligonucleotide, TREX1 enzyme, and DMSO were used as positive controls.
Turning to `COc1cc(-c2nc3cc(NC(=O)c4cnoc4)ccc3n2C2(C)COC2)c(F)c(O)c1O` [Example 206, N-(2-(2-fluoro-3,4-dihydroxy-5-methoxyphenyl)-1-(3-methyloxetan-3-yl)-1H-benzo[d]imidazol-5-yl)isoxazole-4-carboxamide], the IC50 lay in the range of 0.1 to 1 µM. Turning to `COc1cc(-c2nc3cc(N4CCCCC4)ccc3[nH]2)cc(O)c1O` [Example 48, 3-methoxy-5-(5-(piperidin-1-yl)-1H-benzo[d]imidazol-2-yl)benzene-1,2-diol], the IC50 was > 100 µM. Regarding `COc1cc(-c2nc3cc(N4CC(S(C)(=O)=O)C4)ccc3[nH]2)cc(O)c1O` [Example 139, 3-methoxy-5-(5-(3-(methylsulfonyl)azetidin-1-yl)-1H-benzo[d]imidazol-2-yl)benzene-1,2-diol], the IC50 lay within 1 to 10 µM. With `COc1cc(-c2nc3nc(N4CCOCC4)ccc3n2C2CCOC2)cc(O)c1O` (stereo not drawn) [Example 287, 3-methoxy-5-(5-morpholino-1-(tetrahydrofuran-3-yl)-1H-imidazo[4,5-b]pyridin-2-yl)benzene-1,2-diol] the figure was > 100 µM. Turning to `COc1cc(-c2nc3ccccc3n2C2CCC2)c(C)c(O)c1O` [Example 168, 4-(1-cyclobutyl-1H-benzo[d]imidazol-2-yl)-6-methoxy-3-methylbenzene-1,2-diol], the IC50 was in the range of 0.1 to 1 µM. With `COc1cc(-c2nc3cc(N4CCOCC4)ccc3s2)cc(O)c1O` [Example 156, 3-methoxy-5-(5-morpholinobenzo[d]thiazol-2-yl)benzene-1,2-diol], the IC50 is 10 to 100 µM.

Regarding `COCCn1c(-c2cc(O)c(O)c(OC)c2)nc2ccccc21` [Example 15, 3-methoxy-5-(1-(2-methoxyethyl)-1H-benzo[d]imidazol-2-yl)benzene-1,2-diol], the IC50 was > 100 µM. For the compound `C=CCCC(=O)N1CCN(c2ccc3c(c2)nc(-c2cc(O)c(O)c(OC)c2)n3C(=O)CCC=C)CC1` [Example 34, 1-(4-(2-(3,4-dihydroxy-5-methoxyphenyl)-1-(pent-4-enoyl)-1H-benzo[d]imidazol-5-yl)piperazin-1-yl)pent-4-en-1-one], the IC50 lay within 10 to 100 µM. In the case of `COc1cc(-c2nc3ccc(-c4ncc(F)cn4)cc3n2C2(C)COC2)c(F)c(O)c1O` [Example 270, 3-fluoro-4-(6-(5-fluoropyrimidin-2-yl)-1-(3-methyloxetan-3-yl)-1H-benzo[d]imidazol-2-yl)-6-methoxybenzene-1,2-diol], the IC50 was ≤ 0.1 µM. For the compound `COc1cc(-c2nc3cc(NCCO)ccc3[nH]2)cc(O)c1O` [Example 319, 5-(5-((2-hydroxyethyl)amino)-1H-benzo[d]imidazol-2-yl)-3-methoxybenzene-1,2-diol], the IC50 fell in the range of 1 to 10 µM.

Regarding `COc1cc(-c2nc3c(NC(C)=O)cccc3n2C2(C)COC2)c(F)c(O)c1O` [Example 209, N-[2-(2-fluoro-3,4-dihydroxy-5-methoxyphenyl)-1-(3-methyloxetan-3-yl)-1H-1,3-benzodiazol-4-yl]acetamide], the IC50 lay within 0.1 to 1 µM. On to `COc1cc(-c2nc3cc(N4CCN(CC(F)(F)F)CC4)ccc3[nH]2)cc(O)c1O` [Example 52, 3-methoxy-5-(5-(4-(2,2,2-trifluoroethyl)piperazin-1-yl)-1H-benzo[d]imidazol-2-yl)benzene-1,2-diol], for which the IC50 was > 100 µM. Turning to `COc1cc(-c2nc3ccc(-c4cn[nH]c4)cc3n2C2(C)COC2)c(F)c(O)c1O` [Example 194], the IC50 is ≤ 0.1 µM. With `COc1cc(-c2nc3cc(N4CCN(Cc5ccccc5)CC4)ccc3[nH]2)cc(O)c1O` [Example 59, 5-(5-(4-benzylpiperazin-1-yl)-1H-benzo[d]imidazol-2-yl)-3-methoxybenzene-1,2-diol], the IC50 lay in the range of 10 to 100 µM. Regarding `COc1cc(-c2nc3cc(C4CCN(C(C)=O)CC4)ccc3[nH]2)cc(O)c1O` [Example 109, 1-(4-(2-(3,4-dihydroxy-5-methoxyphenyl)-1H-benzo[d]imidazol-5-yl)piperidin-1-yl)ethanone], the IC50 lay within 10 to 100 µM.
